Test [1] is described as follows: Thiol-click (click-to-release) kinetics followed by NMR. In kind it is physicochemical. Particulars: for relative reactivity in thiol and amine addition reactions (in words): both thiol and amine addition (FIG. 2B-2C); for thiol-click reaction rate (in words): MeOH-d4, A1:thiol 2:1 (FIG. 2B). As for the experimental part: (§1) 10 μmol (2 eq.) of A1 molecules was dissolved in single or mixed deuterated solvents (the volume of solvent depends on the solubility of A1). Then, 5 μmol (1 eq.) of 2-(2-Methoxyethoxy) ethanethiol or benzylamine was added to the solution. The reaction was immediately followed by NMR. The final concentration of A1 for each molecule is shown at the end of supplementary information case by case. The conversion of thiol or amine was calculated from the integration of corresponding peaks by NMR and plotted against reaction time.
Compound 1, 2, 3, 4, 5, 8, 11, 12, 13: 10 μmol (2 eq.) of molecule 1, 2, 3, 4, 5, 8, 11, 12, 13 was dissolved in 1000 μL of MeOH-d4. Then, 5 μmol (1 eq.) of thiol was added to the solution. The reaction was immediately followed by NMR.
Compound 6, 7, 9: 10 μmol (2 eq.) of molecule 6, 7, 9 was dissolved in 500 μL of MeOH-d4 and 500 μL of 50 mM pH 7.4 phosphate buffer. Then, 5 μmol (1 eq.) of thiol or amine was added to the solution. The reaction was immediately followed by NMR.
Compound 10: 10 μmol (2 eq.) of molecule 10 was dissolved in 1000 μL of DMSO-d6 and 500 μL of 50 mM pH 7.4 phosphate buffer. Then, 5 μmol (1 eq.) of thiol or amine was added to the solution. The reaction was immediately followed by NMR.
Compound 14, 15, 16: 10 μmol (2 eq.) of molecule 14, 15, 16 was dissolved in dissolved in 500 μL of MeOH-d4 and 500 μL of 50 mM pH 6.2 phosphate buffer. Then, 5 μmol (1 eq.) of thiol or amine was added to the solution. The reaction was immediately followed by NMR.

A short description of test [2]: Thiol-triggered declick of thiol/amine click products followed by NMR. The class given is physicochemical. As for the experimental part:
Typically, product of thiol-A1 or amine-A1 click product was dissolved in single or mixed deuterated solvents (the volume of solvent depends on the solubility of A1 The volume of solvent depends on the solubility of click product). Then, thiol was added to the solution. The reaction was immediately followed by NMR.
Compound 17: 10 μmol (1 eq.) of 17 was dissolved in 500 μL of MeOH-d4 and 500 μL of 50 mM pH6.8 phosphate buffer. Then, 80 μmol (8 eq.) of thiol was added to the solution. Final concentration of 17 is 10 mM.
Compound 18: 10 μmol (1 eq.) of 18 was dissolved in 500 μL of MeOH-d4 and 500 μL of 50 mM pH7.4 phosphate buffer. Then, 80 μmol (8 eq.) of thiol was added to the solution. Final concentration of 18 is 10 mM.
Compound 19: 10 μmol (1 eq.) of 19 was dissolved in 500 μL of MeOH-d4 and 500 μL of 50 mM pH7.4 phosphate buffer. Then, 10 μmol (0.5 eq.) of thiol was added to the solution. Final concentration of 19 is 10 mM.
Compound 20: 10 μmol (1 eq.) of 20 was dissolved in 1000 μL of MeOH-d4 and 500 μL of 50 mM pH7.4 phosphate buffer. Then, 10 μmol (0.5 eq.) of thiol was added to the solution. Final concentration of 20 is 6.67 mM.
Compound 21: 10 μmol (1 eq.) of 21 was dissolved in 500 μL of MeOH-d4 and 500 μL of 50 mM pH7.4 phosphate buffer. Then, 10 μmol (0.5 eq.) of thiol was added to the solution. Final concentration of 21 is 10 mM. […]

A short description of test [3]: Amine-click kinetics followed by NMR. In kind it is physicochemical. As for the experimental part: as §1
• Compound 1, 2, 3, 4, 5, 6, 7, 8, 9, 11, 12, 13: 10 μmol (2 eq.) of molecule 1, 2, 3, 4, 5, 6, 7, 8, 9, 11, 12, 13 was dissolved in 500 μL of MeOH-d4 and 500 μL of 50 mM pH 7.4 phosphate buffer. Then, 5 μmol (1 eq.) of benzylamine was added to the solution. The reaction was immediately followed by NMR.
Compound 10: 10 μmol (2 eq.) of molecule 10 was dissolved in 1000 μL of DMSO-d6 and 500 μL of 50 mM pH 7.4 phosphate buffer. Then, 5 μmol (1 eq.) of benzylamine was added to the solution. The reaction was immediately followed by NMR.
Compound 14, 15, 16: 10 μmol (2 eq.) of molecule 14, 15, 16 was dissolved in 800 μL of MeOH-d4 and 200 μL of 50 mM pH 7.4 phosphate buffer. Then, 5 μmol (1 eq.) of benzylamine was added to the solution. The reaction was immediately followed by NMR.

For the next test, the target named is T1, Myoglobin (Myo) (Equus caballus, UniProt P68082).
T1 construct: purchased
Description: Myoglobin reversible modification and biophysical characterization. The class given is biochemical. As for the experimental part: For Myoglobin (Myo) reversible modification reactions, the modified protein solution was prepared by reacting 100 μM of the Myo with 20 equivalents of 1 for 5 min in 50 mM pH 8.0 phosphate buffer at room temperature. The proteins were collected from HPLC purification from previous modification reactions, and the excess labeling reagents were removed from the reaction mixtures. The collected protein solution was characterized by ESI-MS or other biophysical characterizations such as Circular Dichroism (CD) and Ultraviolet-Visible Spectroscopy (UV-Vis). The same protein solution was also buffer-exchanged using 10K NMWL Amicon Ultra centrifugal filters (Millipore, Burlington, MA) with 50 mM pH 7.4 phosphate buffer to yield a 100 μM solution for further reverse reaction. […] After reverse modification reaction, the reaction mixture was injected to a LC-MS system for intact protein analyses. […]
Far-UV CD analyses were performed on a Jasco J-1500 spectropolarimeter. CD spectra were recorded at room temperature over a scan range of 260 to 200 nm. […]
Temperature dependent CD measurements were also performed for the protein samples to evaluate the thermal stability (melting temperature) of Myo before and after labeling. Ellipticity at 222 nm was recorded every 1° C. from 25° C. to 90° C. […] Samples were measured in triplicates and the results were shown in average values.

In a further test the target is T2, β-lactoglobulin B (βLGb) (Bos taurus, UniProt P02754).
T2 construct: purchased
T2 sequence (P02754 17-178): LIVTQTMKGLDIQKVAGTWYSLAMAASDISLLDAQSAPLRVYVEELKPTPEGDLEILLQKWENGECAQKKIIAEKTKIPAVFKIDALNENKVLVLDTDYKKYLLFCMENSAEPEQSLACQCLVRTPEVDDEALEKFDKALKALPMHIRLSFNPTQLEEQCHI
The test can be described thus: βLGb labeling, ESI-MS and MS/MS of digests. The class given is biochemical. Particulars: for modification sites / selectivity on βLGb: digest, MS/MS; for time until βLGb fully labelled: excess of reagent, disappearance of unmodified protein peaks in ESI-MS; for number of modifications in βLGb: mass shift, ESI-MS. As for the experimental part:
For βLGb labeling reaction, βLGb was first denatured by 8 M of urea to expose the free cysteine. The denatured protein was then diluted with 50 mM pH 8.0 phosphate buffer, which results in a protein solution concentration of 100 μM. This protein solution was incubated with 20 equivalents of 1 for 5 min or with 20 equivalents of 8 for 40 min at room temperature to obtain the fully modified proteins respectively. After labeling, the reaction mixtures were injected immediately into an HPLC to remove excess labeling reagents and phosphate salts and then later analyzed by ESI-MS.
The labeled βLGb protein samples were first buffer-exchanged using 10K NMWL Amicon Ultra centrifugal filters (Millipore, Burlington, MA) with 100 mM triethylamine acetate (pH 8.0), and reconstituted with 1 M urea before enzymatic digestion. To reduce the disulfide bonds in βLGb, TCEP in water was added at a protein:TCEP molar ratio of 1:20, and the sample was incubated at room temperature for 10 min. To alkylate the reduced cysteines, iodoacetamide in water was added at a protein:iodoacetamide molar ratio of 1:80, and the sample was incubated in the dark at room temperature for 30 min. The denatured, reduced, and alkylated protein samples were then digested with trypsin at an enzyme: substrate ratio of 1:10. After 4 h of digestion at 37° C., the enzyme was separated from the mixture by centrifugation using a 10K NMWL Microcon filter (Millipore, Burlington, MA). The filtrate was then analyzed by LC-MS and LC-MS/MS.
To quench the labeling reaction and to remove excess labeling reagents and buffer salts, a Thermo Scientific Ultimate 3000 HPLC system (Thermo Scientific, Tewksbury, MA) with an OPTI-TRAP C4 reverse phase column (1×8 mm) was used. The protein was eluted using an acetonitrile gradient that increases from 1 to 99% over 12 min at a flow rate of 0.2 mL/min. The labeled protein was collected for proteolytic digestion or intact protein MS characterization.
Mass spectral analyses of the HPLC separated intact protein samples (Myo and βLGb) from the covalent labeling experiments were acquired on a Bruker AmaZon (Billerica, MA) quadrupole ion trap mass spectrometer equipped with an electrospray ionization source. The electrospray needle voltage was kept at 4 kV, and the capillary temperature was set to 250° C. Mass spectra of intact BCA protein samples were acquired on a Thermo Orbitrap Fusion Tribrid (Tewksbury, MA) mass spectrometer. The electrospray ionization source was typically operated at a needle voltage of 3800 V, and the ion transfer tube temperature was set to 325° C.
LC-MS and LC-MS/MS analyses of protein proteolytic fragments were conducted on a Thermo Orbitrap Fusion Tribrid (Tewksbury, MA) mass spectrometer. The electrospray ionization source was typically operated at a needle voltage of 2100 V, and the ion transfer tube temperature was set to 300° C. Tandem mass spectra were collected using CID with a normalized collision energy of 35%. Due to the large number of detectable peaks, an exclusion limit of 60 s was applied after five spectra had been collected for any given peak. The resolution of the Orbitrap was set to 60000.
Raw mass spectral data files were analyzed by Thermo Proteome Discoverer 2.2 software. Spectra were searched against the corresponding protein sequence. Variable modification by certain labeling reagents of the residues and the protein N-terminus was added as a dynamic modification. Other dynamic modifications such as oxidation of methionine and carboxyamidomethylation of cysteine were also used in the searches. Trypsin enzyme cleavage was selected, and a precursor mass tolerance of 10 ppm was used. Identifications of peptides and modifications at high confidence levels were used and were manually checked in all cases.

Entries after “also recorded” stand apart in the source; their conditions may differ. A value given as a limit tells only on which side of the number the result lay.

T1 sequence (P68082 whole entry): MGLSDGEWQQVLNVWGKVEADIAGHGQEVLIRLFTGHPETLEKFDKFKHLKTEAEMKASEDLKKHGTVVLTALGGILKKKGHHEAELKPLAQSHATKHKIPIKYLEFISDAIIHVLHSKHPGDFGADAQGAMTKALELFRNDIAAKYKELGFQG

In the case of `C=C(COC(C)=O)C(=O)NC` [Compound 9], in test [1], the “relative reactivity in thiol and amine addition reactions (in words)” value (from here on “relative reactivity”) is reported as “considerably slower than the corresponding acrylates”.

For the compound `C=C(C[n+]1ccc(N(C)C)cc1)C(=O)OC` [Compound 5], the “thiol-click reaction rate (in words)” value in test [1] was “much slower; also recorded: faster than 4”.

For `C=C(CN(CC(=C)C(=O)OC)Cc1ccccc1)C(=O)OC` [Compound 23], in test [2] (2 equivalents of T2, MeOH-d4 / 50 mM pH 7.4 phosphate buffer 2:1), the “benzylamine (29) released in declick” value was “More than 80%”.

Take `C=C(COC(=O)Nc1ccc([N+](=O)[O-])cc1)C(=O)NC` [Compound 10]: in test [1], the “relative reactivity” value was “considerably slower than the corresponding acrylates”.

On to `C=C(C[n+]1ccccc1)C(=O)OC` [Compound 4], for which the “thiol-click reaction rate (in words)” value in test [1] was “much slower”. Also, the “reactivity toward benzylamine (in words)” value in test [3] (pH maintained, deuterated MeOH/buffer mixed media (FIG. 2C)) is “higher than 5”.

For `C=C(CSCCOCCOC)C(=O)OC` [Compound 17], the “originally clicked T2 released in declick” value in test [2] (8 equivalents of ethanethiol (T1), MeOH-d4 / 50 mM pH 6.8 phosphate buffer 1:1) came to 70%.

As for `C=C(C[N+](CC)(CC)CC)C(=O)OC` [Compound 1], in test [1] (1H NMR, 0.5 equivalent of thiol, 50 mM pH 7.4 phosphate buffer (FIG. 7)), the “time for completion of reaction with the thiol” value stood at 3 min. The “reversal of myoglobin modification by thiol” value on Myoglobin (Myo) (10 equivalents of thiol for 2 hours) is given as “reversed to unmodified myoglobin”. Also, the modifications on myoglobin entry at Myoglobin (Myo) (treated with 1, ESI-MS) is “Multiple modifications”. In addition, the “time for completion of reaction with benzylamine” value in test [3] (pH 7.4) was around 50 min. Moreover, on β-lactoglobulin B (βLGb), the “modification sites / selectivity on βLGb” value is “non-selective; also recorded: modifications of other nucleophilic residues including lysine, tyrosine and threonine”; the “time until βLGb fully labelled” value was at most 5 min; the “number of modifications in βLGb” value is “one to four”.

With `C=C(C[N+](CC)(CC)CC)C(=O)NC` [Compound 8], in test [1], the “relative reactivity” value is reported as “considerably slower than the corresponding acrylates; also recorded: less reactive than ester 1”. Also, on β-lactoglobulin B (βLGb), the “modification sites / selectivity on βLGb” value is “only the free cysteine site was modified”, the “time until βLGb fully labelled” value is at most 40 min and the “number of modifications in βLGb” value is “one”.

These data come from patent US12215078B2, “Compositions and methods for protein labeling, modification, analysis, and targeted delivery” (University of Massachusetts, priority 2018, dated 2025).
